Test results: ChEMBL document CHEMBL1909046, “DrugMatrix in vitro pharmacology data”

Legend:
Calcitonin receptor = molecular target: T1, Calcitonin receptor (Homo sapiens, UniProt P30988); format: cell membranes, Membrane; details: t47d; note: in other assays of this panel Not Active means under 50% inhibition at 10 µM
T1 sequence (P30988 whole entry): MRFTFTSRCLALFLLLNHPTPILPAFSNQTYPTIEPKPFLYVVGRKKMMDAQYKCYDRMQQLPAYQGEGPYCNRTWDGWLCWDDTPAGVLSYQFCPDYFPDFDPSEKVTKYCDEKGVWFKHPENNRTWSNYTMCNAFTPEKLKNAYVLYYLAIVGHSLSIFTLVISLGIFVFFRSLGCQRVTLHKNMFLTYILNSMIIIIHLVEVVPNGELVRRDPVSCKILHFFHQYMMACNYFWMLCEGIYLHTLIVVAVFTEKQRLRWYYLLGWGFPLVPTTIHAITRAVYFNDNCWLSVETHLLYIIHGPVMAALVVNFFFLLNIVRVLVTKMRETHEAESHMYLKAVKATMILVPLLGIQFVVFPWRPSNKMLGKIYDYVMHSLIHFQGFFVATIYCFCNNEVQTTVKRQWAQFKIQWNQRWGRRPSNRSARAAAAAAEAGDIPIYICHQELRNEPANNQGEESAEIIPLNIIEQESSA

[1] = DRUGMATRIX: Calcium Channel Type L, Dihydropyridine radioligand binding (ligand: [3H] Nitrendipine); format: cell membranes, Rattus norvegicus, Wistar, Cerebral cortex, Membrane; details: Not Active = under 50% inhibition at 10 µM
Substance-P receptor = Substance-P receptor (Homo sapiens, UniProt P25103); format: cell membranes, CHO, Membrane; details: cho; note: in other assays of this panel Not Active means under 50% inhibition at 10 µM
[2] = DRUGMATRIX: Tumor Necrosis Factor (TNF), Non-Selective radioligand binding (ligand: [125I] TNF-alpha); format: cell membranes, Membrane; details: u-937; Not Active = under 50% inhibition at 10 µM
Vasopressin V1a receptor = Vasopressin V1a receptor (Homo sapiens, UniProt P37288); format: cell membranes, Membrane; details: hek293; note: in other assays of this panel Not Active means under 50% inhibition at 10 µM
[3] = molecular target: C-C chemokine receptor type 2 (Homo sapiens, UniProt P41597); format: cell membranes, CHO-K1, Membrane; details: cho-k1; note: in other assays of this panel Not Active means under 50% inhibition at 10 µM
[4] = molecular target: T2, C-X-C chemokine receptor type 1 (Homo sapiens, UniProt P25024); note: in other assays of this panel Not Active means under 50% inhibition at 10 µM
T2 sequence (P25024 whole entry): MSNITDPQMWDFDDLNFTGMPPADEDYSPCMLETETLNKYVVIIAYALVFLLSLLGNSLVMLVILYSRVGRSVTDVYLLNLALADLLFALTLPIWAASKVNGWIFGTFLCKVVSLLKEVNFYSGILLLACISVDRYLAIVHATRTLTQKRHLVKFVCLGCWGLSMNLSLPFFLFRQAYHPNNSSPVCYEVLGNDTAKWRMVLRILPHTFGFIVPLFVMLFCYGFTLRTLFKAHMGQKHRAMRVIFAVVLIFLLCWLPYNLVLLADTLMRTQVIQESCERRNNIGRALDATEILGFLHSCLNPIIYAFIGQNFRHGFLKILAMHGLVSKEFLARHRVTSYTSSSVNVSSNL

[5] = molecular target: T3, Amine oxidase [flavin-containing] A (Homo sapiens, UniProt P21397); experiment: DRUGMATRIX: Monoamine Oxidase MAO-A enzyme inhibition (substrate: Kynuramine); parameters: species or system BTI-TN-5B1-4; details: bti-tn-5b1-4; Not Active = under 50% inhibition at 10 µM
T3 sequence (P21397 whole entry): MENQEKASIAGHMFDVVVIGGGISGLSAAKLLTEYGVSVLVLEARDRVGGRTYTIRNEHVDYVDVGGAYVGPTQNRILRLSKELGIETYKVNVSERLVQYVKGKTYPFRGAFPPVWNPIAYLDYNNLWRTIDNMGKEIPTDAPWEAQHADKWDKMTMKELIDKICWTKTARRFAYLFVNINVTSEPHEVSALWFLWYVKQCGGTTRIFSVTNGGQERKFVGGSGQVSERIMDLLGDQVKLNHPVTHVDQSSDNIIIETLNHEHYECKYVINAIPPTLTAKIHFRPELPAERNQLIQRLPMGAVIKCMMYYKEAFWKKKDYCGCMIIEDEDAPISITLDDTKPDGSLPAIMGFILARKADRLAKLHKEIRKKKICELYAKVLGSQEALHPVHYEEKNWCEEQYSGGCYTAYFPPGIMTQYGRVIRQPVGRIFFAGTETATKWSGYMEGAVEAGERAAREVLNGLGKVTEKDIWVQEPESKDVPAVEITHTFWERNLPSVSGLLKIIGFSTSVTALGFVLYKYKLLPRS

[6] = molecular target: Delta-type opioid receptor (Homo sapiens, UniProt P41143); format: cell membranes, HEK293, Membrane; details: hek293; note: in other assays of this panel Not Active means under 50% inhibition at 10 µM
Delta-type opioid receptor, sequence (P41143 whole entry): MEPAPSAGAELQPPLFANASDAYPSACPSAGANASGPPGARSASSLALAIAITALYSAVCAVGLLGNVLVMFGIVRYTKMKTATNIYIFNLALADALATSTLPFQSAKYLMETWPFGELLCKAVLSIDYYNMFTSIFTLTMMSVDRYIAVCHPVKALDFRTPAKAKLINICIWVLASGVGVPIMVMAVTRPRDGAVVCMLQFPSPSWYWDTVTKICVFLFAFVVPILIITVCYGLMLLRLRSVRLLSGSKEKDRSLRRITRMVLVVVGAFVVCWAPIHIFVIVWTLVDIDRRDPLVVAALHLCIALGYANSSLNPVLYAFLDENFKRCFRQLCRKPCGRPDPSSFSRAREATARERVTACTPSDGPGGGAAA

C-C chemokine receptor type 2, sequence (P41597 whole entry): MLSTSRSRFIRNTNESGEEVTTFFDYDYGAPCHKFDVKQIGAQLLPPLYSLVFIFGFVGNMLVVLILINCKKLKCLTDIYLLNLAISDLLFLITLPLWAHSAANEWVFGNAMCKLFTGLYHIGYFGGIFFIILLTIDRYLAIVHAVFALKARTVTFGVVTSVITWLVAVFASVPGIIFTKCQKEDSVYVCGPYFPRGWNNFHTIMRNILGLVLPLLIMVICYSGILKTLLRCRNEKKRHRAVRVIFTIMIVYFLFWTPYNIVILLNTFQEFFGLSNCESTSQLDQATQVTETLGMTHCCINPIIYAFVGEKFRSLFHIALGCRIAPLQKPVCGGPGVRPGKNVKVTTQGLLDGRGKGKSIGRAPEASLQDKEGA
Vasopressin V1a receptor, sequence (P37288 whole entry): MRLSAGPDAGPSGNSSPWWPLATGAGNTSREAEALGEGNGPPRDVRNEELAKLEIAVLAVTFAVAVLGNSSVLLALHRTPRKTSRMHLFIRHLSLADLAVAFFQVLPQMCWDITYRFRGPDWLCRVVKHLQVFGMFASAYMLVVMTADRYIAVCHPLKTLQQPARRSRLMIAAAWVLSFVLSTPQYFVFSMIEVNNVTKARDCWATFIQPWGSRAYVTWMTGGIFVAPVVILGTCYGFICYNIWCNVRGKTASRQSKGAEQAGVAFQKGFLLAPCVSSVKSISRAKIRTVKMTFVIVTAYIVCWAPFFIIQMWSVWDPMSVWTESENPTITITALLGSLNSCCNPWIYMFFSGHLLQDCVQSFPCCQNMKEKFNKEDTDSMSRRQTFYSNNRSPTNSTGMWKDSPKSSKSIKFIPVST
Substance-P receptor, sequence (P25103 whole entry): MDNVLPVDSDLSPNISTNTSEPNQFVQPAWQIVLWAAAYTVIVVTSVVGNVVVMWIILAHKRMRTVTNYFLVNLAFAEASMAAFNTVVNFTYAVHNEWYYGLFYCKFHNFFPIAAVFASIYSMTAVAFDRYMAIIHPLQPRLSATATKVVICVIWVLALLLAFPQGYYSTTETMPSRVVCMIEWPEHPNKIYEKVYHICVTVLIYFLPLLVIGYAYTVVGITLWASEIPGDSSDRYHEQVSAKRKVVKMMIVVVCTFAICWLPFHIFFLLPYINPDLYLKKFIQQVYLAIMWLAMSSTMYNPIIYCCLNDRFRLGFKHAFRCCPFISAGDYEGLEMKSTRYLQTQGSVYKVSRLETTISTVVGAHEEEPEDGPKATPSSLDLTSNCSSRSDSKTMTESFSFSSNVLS

CC(C)CN(C[C@@H](O)[C@H](Cc1ccccc1)NC(=O)O[C@H]1CCOC1)S(=O)(=O)c1ccc(N)cc1
Not Active: IC50 (Calcitonin receptor) | IC50 [1] | Ki [1] | IC50 (Substance-P receptor) | IC50 [2] | Ki [2] | IC50 (Vasopressin V1a receptor) | IC50 [3] | IC50 [4] | IC50 [5] | IC50 [6]

O=c1[nH]c(=O)n([C@H]2C[C@H](O)[C@@H](CO)O2)cc1I [IDOXURIDINE]
Not Active: IC50 (Calcitonin receptor) | IC50 [1] | Ki [1] | IC50 (Substance-P receptor) | IC50 [2] | Ki [2] | IC50 (Vasopressin V1a receptor) | IC50 [3] | IC50 [4] | IC50 [5] | IC50 [6]

C[C@H](CCC(=O)O)[C@H]1CC[C@H]2[C@@H]3[C@H](O)C[C@@H]4C[C@H](O)CC[C@]4(C)[C@H]3C[C@H](O)[C@]12C [CHOLIC ACID]
Not Active: IC50 (Calcitonin receptor) | IC50 [1] | Ki [1] | IC50 (Substance-P receptor) | IC50 [2] | Ki [2] | IC50 (Vasopressin V1a receptor) | IC50 [3] | IC50 [4] | IC50 [5] | IC50 [6]

O=C(CCCN1CC=C(n2c(=O)[nH]c3ccccc32)CC1)c1ccc(F)cc1 [DROPERIDOL]
Not Active: IC50 (Calcitonin receptor) | IC50 [1] | Ki [1] | IC50 (Substance-P receptor) | IC50 [2] | Ki [2] | IC50 (Vasopressin V1a receptor) | IC50 [3] | IC50 [4] | IC50 [5] | IC50 [6]

CC(=O)O[C@@]12CO[C@@H]1C[C@H](O)[C@@]1(C)C(=O)[C@H](O)C3=C(C)[C@@H](OC(=O)[C@H](O)[C@@H](NC(=O)OC(C)(C)C)c4ccccc4)C[C@@](O)([C@@H](OC(=O)c4ccccc4)[C@H]21)C3(C)C.O.O.O [DOCETAXEL]
Not Active: IC50 (Calcitonin receptor) | IC50 [1] | Ki [1] | IC50 (Substance-P receptor) | IC50 [2] | Ki [2] | IC50 (Vasopressin V1a receptor) | IC50 [3] | IC50 [4] | IC50 [5] | IC50 [6]

C[C@H]1c2cccc(O)c2C(=O)C2=C(O)[C@]3(O)C(=O)C(C(N)=O)=C(O)[C@@H](N(C)C)[C@@H]3[C@@H](O)[C@@H]21.O [DOXYCYCLINE]
Not Active: IC50 (Calcitonin receptor) | IC50 [1] | Ki [1] | IC50 (Substance-P receptor) | IC50 [2] | Ki [2] | IC50 (Vasopressin V1a receptor) | IC50 [3] | IC50 [4] | IC50 [5] | IC50 [6]

CADMIUM ACETATE
Not Active: IC50 (Calcitonin receptor) | Ki (Calcitonin receptor) | IC50 [1] | Ki [1] | IC50 (Substance-P receptor) | Ki (Substance-P receptor) | IC50 [2] | Ki [2] | IC50 (Vasopressin V1a receptor) | Ki (Vasopressin V1a receptor) | IC50 [3] | Ki [3] | IC50 [4] | Ki [4] | IC50 [5] | Ki [5] | IC50 [6] | Ki [6]

CC(C)[C@@]1(NC(=O)[C@@H]2C[C@@H]3c4cccc5[nH]cc(c45)C[C@H]3N(C)C2)O[C@@]2(O)[C@@H]3CCCN3C(=O)[C@H](Cc3ccccc3)N2C1=O.CS(=O)(=O)O [DIHYDROERGOCRISTINE MESYLATE]
Not Active: IC50 (Calcitonin receptor) | IC50 [1] | Ki [1] | IC50 (Substance-P receptor) | IC50 [2] | Ki [2] | IC50 (Vasopressin V1a receptor) | IC50 [3] | IC50 [4] | IC50 [5] | IC50 [6]

LIPOPOLYSACCHARIDE E. COLI O55:B5
Not Active: IC50 (Calcitonin receptor) | Ki (Calcitonin receptor) | IC50 [1] | Ki [1] | IC50 (Substance-P receptor) | Ki (Substance-P receptor) | IC50 [2] | Ki [2] | IC50 (Vasopressin V1a receptor) | Ki (Vasopressin V1a receptor) | IC50 [3] | Ki [3] | IC50 [4] | Ki [4] | IC50 [5] | Ki [5] | IC50 [6] | Ki [6]

Nc1c(Br)cc(Br)cc1CN[C@H]1CC[C@H](O)CC1 [AMBROXOL]
Not Active: IC50 (Calcitonin receptor) | IC50 [1] | Ki [1] | IC50 (Substance-P receptor) | IC50 [2] | Ki [2] | IC50 (Vasopressin V1a receptor) | IC50 [3] | IC50 [4] | IC50 [5] | IC50 [6]

NCCCCCC(=O)O [AMINOCAPROIC ACID]
Not Active: IC50 (Calcitonin receptor) | IC50 [1] | Ki [1] | IC50 (Substance-P receptor) | IC50 [2] | Ki [2] | IC50 (Vasopressin V1a receptor) | IC50 [3] | IC50 [4] | IC50 [5] | IC50 [6]

CCC(C)n1ncn(-c2ccc(N3CCN(c4ccc(OCC5COC(Cn6cncn6)(c6ccc(Cl)cc6Cl)O5)cc4)CC3)cc2)c1=O (stereo unspecified) [ITRACONAZOLE]
Not Active: IC50 (Calcitonin receptor) | IC50 [1] | Ki [1] | IC50 (Substance-P receptor) | IC50 [2] | Ki [2] | IC50 (Vasopressin V1a receptor) | IC50 [3] | IC50 [4] | IC50 [5] | IC50 [6]
